Results published in patent US6608062B1 (dated 2003).

Row | SMILES | melting point
1 | Cc1nnc(-c2ccccc2)c2nc(OCc3ncnn3C)c(C3CCCC3)n12 | 137 °C
2 | CCn1ncnc1COc1nc2c(-c3ccccc3)nnc(C)n2c1C1CCCC1 | 94 to 96 °C
3 | Cn1cnc(COc2nc3c(-c4ccccc4F)nncn3c2-c2ccccc2)n1 | 186 °C
4 | Cn1ncnc1COc1nc2c(-c3ccccc3F)nncn2c1C1CCC1 | 120 °C
5 | Cn1ncnc1COc1nc2c(-c3ccccc3)nncn2c1-c1cccc(Cl)c1 | 80 to 84 °C
6 | Cc1nnc(-c2ccccc2)c2nc(OCc3ncnn3C)c(C3CCC3)n12 | 160 °C
7 | Cn1ncnc1COc1nc2c(-c3ccccc3)nncn2c1-c1ccccc1 (hydrate or solvate) | 179 °C

Second part, the compound after the results:

Row | melting point | SMILES
8 | 195 °C | Cn1ncnc1COc1nc2c(-c3ccccc3F)nncn2c1-c1ccccc1
9 | 200 °C | Cn1ncnc1COc1nc2c(-c3cc(F)ccc3F)nncn2c1-c1ccccc1
10 | 130 °C | Cn1ncnc1COc1nc2c(-c3ccc(F)cc3)nncn2c1-c1ccccc1
11 | 190 °C | Cn1ncnc1COc1nc2c(-c3c(F)cccc3F)nncn2c1-c1ccccc1
